From PubChem BioAssay (NCI)
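How tested: cells in 96-well plates exposed to compound for 48 hours at five concentrations. At the GI50, growth is halved. TGI: concentration producing complete growth inhibition.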

Assays:
Test in all cases: NCI-60 cell line screen, 48 h
[1] = tested on: 786-0 renal
[2] = tested on: A549 NSCLC
[3] = tested on: ACHN renal
[4] = tested on: CAKI-1 renal
[5] = tested on: CCRF-CEM leukemia
[6] = tested on: COLO 205 colon
[7] = tested on: DU-145 prostate
[8] = tested on: EKVX NSCLC
[9] = tested on: HCT-116 colon
[10] = tested on: HCT-15 colon
[11] = tested on: HL-60(TB) leukemia
[12] = tested on: HOP-62 NSCLC
[13] = tested on: HS 578T breast
[14] = tested on: HT29 colon
[15] = tested on: IGROV1 ovarian
[16] = tested on: K-562 leukemia
[17] = tested on: KM12 colon
[18] = tested on: LOX IMVI melanoma
[19] = tested on: M14 melanoma
[20] = tested on: MCF7 breast
[21] = tested on: MDA-MB-231 breast
[22] = tested on: MDA-MB-435
[23] = tested on: MOLT-4 leukemia
[24] = tested on: NCI-H226 lung
[25] = tested on: NCI-H460 lung
[26] = tested on: NCI-H522 lung
[27] = tested on: NCI/ADR-RES ovarian
[28] = tested on: OVCAR-3 ovarian
[29] = tested on: OVCAR-5 ovarian
[30] = tested on: OVCAR-8 ovarian
[31] = tested on: PC-3 prostate
[32] = tested on: RXF 393 renal
[33] = tested on: SF-268 CNS
[34] = tested on: SF-295 CNS
[35] = tested on: SK-MEL-2 melanoma
[36] = tested on: SK-MEL-28 melanoma
[37] = tested on: SK-OV-3 ovarian
[38] = tested on: SN12C renal
[39] = tested on: SNB-19 CNS
[40] = tested on: SNB-75 CNS
[41] = tested on: SR leukemia
[42] = tested on: SW-620 colon
[43] = tested on: T-47D breast
[44] = tested on: TK-10 renal
[45] = tested on: U251 CNS
[46] = tested on: UACC-257 melanoma
[47] = tested on: UACC-62 melanoma
[48] = tested on: UO-31 renal
[49] = tested on: BT-549 breast
[50] = tested on: HCC-2998 colon
[51] = tested on: HOP-92 NSCLC
[52] = tested on: MALME-3M melanoma
[53] = tested on: NCI-H23 lung
[54] = tested on: OVCAR-4 ovarian
[55] = tested on: RPMI-8226 leukemia
[56] = tested on: SF-539 CNS
[57] = tested on: SK-MEL-5 melanoma
[58] = tested on: A498 renal

c1ccc(Cc2cc(-c3ccccc3)n[nH]2)cc1
TGI [1]: 43.4 µM
TGI [2]: 26 µM
TGI [3]: 36.4 µM
TGI [4]: 32.9 µM
TGI [5]: 27 µM
TGI [6]: 31.2 µM
TGI [7]: 26.2 µM
TGI [8]: 27.5 µM
TGI [9]: 88.9 µM
TGI [10]: 53 µM
TGI [11]: 39.3 µM
TGI [12]: 92.9 µM
TGI [13]: 36.7 µM
TGI [14]: 23.2 µM
TGI [15]: 34 µM
TGI [16]: 25.6 µM
TGI [17]: 28.8 µM
TGI [18]: 28.3 µM
TGI [19]: 80.1 µM
TGI [20]: 40.3 µM
TGI [21]: 25.8 µM
TGI [22]: 22.8 µM
TGI [23]: 23.1 µM
TGI [24]: 33.5 µM
TGI [25]: 33.3 µM
TGI [26]: 33.2 µM
TGI [27]: 49.4 µM
TGI [28]: 16.8 µM
TGI [29]: 47.9 µM
TGI [30]: 30.9 µM
TGI [31]: 34.2 µM
TGI [32]: 22.1 µM
TGI [33]: 57.6 µM
TGI [34]: 19.5 µM
TGI [35]: 31.8 µM
TGI [36]: 25.8 µM
TGI [37]: > 100 µM
TGI [38]: 26.3 µM
TGI [39]: 82.7 µM
TGI [40]: 15.8 µM
TGI [41]: 32.3 µM
TGI [42]: 28.7 µM
TGI [43]: > 100 µM
TGI [44]: 42.5 µM
TGI [45]: 27.9 µM
TGI [46]: 31.5 µM
TGI [47]: 27.4 µM
TGI [48]: 49.8 µM

Cc1c2c(nn1-c1ccc(S/N=C3\SCC(=O)CN3Cc3ccccc3)cc1)-c1ccccc1CC2
GI50 [1]: 89.2 µM
TGI [1]: > 100 µM
GI50 [2]: 46.7 µM
TGI [2]: > 100 µM
GI50 [3]: 32.9 µM
TGI [3]: > 100 µM
GI50 [49]: 22.5 µM
TGI [49]: 54.7 µM
GI50 [4]: 26.6 µM
TGI [4]: 87.6 µM
GI50 [5]: 6.45 µM
TGI [5]: > 100 µM
GI50 [6]: 63.4 µM
TGI [6]: > 100 µM
GI50 [7]: 50.5 µM
TGI [7]: > 100 µM
GI50 [8]: 46.6 µM
TGI [8]: > 100 µM
GI50 [50]: 72.9 µM
TGI [50]: > 100 µM
GI50 [10]: 31.7 µM
TGI [10]: > 100 µM
GI50 [11]: 34.1 µM
TGI [11]: > 100 µM
GI50 [12]: > 100 µM
TGI [12]: > 100 µM
GI50 [51]: > 100 µM
TGI [51]: > 100 µM
GI50 [14]: 51.5 µM
TGI [14]: > 100 µM
GI50 [15]: 24 µM
TGI [15]: > 100 µM
GI50 [16]: 30.1 µM
TGI [16]: > 100 µM
GI50 [17]: 60.1 µM
TGI [17]: > 100 µM
GI50 [18]: 10.7 µM
TGI [18]: 25 µM
GI50 [19]: 46.5 µM
TGI [19]: > 100 µM
GI50 [52]: 41.4 µM
TGI [52]: 82.7 µM
GI50 [20]: 3.74 µM
TGI [20]: 35 µM
GI50 [21]: 24.8 µM
TGI [21]: 87.3 µM
GI50 [22]: 20.6 µM
TGI [22]: 48.5 µM
GI50 [23]: 9.62 µM
TGI [23]: > 100 µM
GI50 [24]: 38.5 µM
TGI [24]: > 100 µM
GI50 [53]: 49.8 µM
TGI [53]: > 100 µM
GI50 [25]: 29.4 µM
TGI [25]: > 100 µM
GI50 [26]: 22.6 µM
TGI [26]: 59.7 µM
GI50 [27]: 39.2 µM
TGI [27]: > 100 µM
GI50 [28]: 25.2 µM
TGI [28]: 68.3 µM
GI50 [54]: 96.7 µM
TGI [54]: > 100 µM
GI50 [29]: > 100 µM
TGI [29]: > 100 µM
GI50 [30]: 41 µM
TGI [30]: > 100 µM
GI50 [31]: 27.7 µM
TGI [31]: > 100 µM
GI50 [55]: 31.1 µM
TGI [55]: > 100 µM
GI50 [32]: 22.6 µM
TGI [32]: 54.7 µM
GI50 [33]: 17.6 µM
TGI [33]: 46.1 µM
GI50 [34]: 25.7 µM
TGI [34]: 91.5 µM
GI50 [56]: 29.5 µM
TGI [56]: 58.2 µM
GI50 [35]: 58.2 µM
TGI [35]: > 100 µM
GI50 [36]: 24.6 µM
TGI [36]: 62.4 µM
GI50 [57]: 9.08 µM
TGI [57]: 29.5 µM
GI50 [37]: 88.9 µM
TGI [37]: > 100 µM
GI50 [38]: 26.7 µM
TGI [38]: 99.7 µM
GI50 [39]: > 100 µM
TGI [39]: > 100 µM
GI50 [40]: 75.9 µM
TGI [40]: > 100 µM
GI50 [41]: 8.35 µM
TGI [41]: > 100 µM
GI50 [42]: 25.5 µM
TGI [42]: > 100 µM
GI50 [43]: 82.9 µM
TGI [43]: > 100 µM
GI50 [44]: 50.4 µM
TGI [44]: > 100 µM
GI50 [45]: 21.8 µM
TGI [45]: 78.9 µM
GI50 [46]: 38.2 µM
TGI [46]: > 100 µM
GI50 [47]: 28.3 µM
TGI [47]: > 100 µM
GI50 [48]: 64.3 µM
TGI [48]: > 100 µM

CCCCCCN1C(=O)CC(=O)N(CCCCCC)S1(=O)=O
TGI [1]: 35.8 µM
TGI [58]: 27.8 µM
TGI [2]: > 100 µM
TGI [4]: 50.7 µM
TGI [5]: 40.9 µM
TGI [6]: 34.6 µM
TGI [7]: > 100 µM
TGI [8]: 41 µM
TGI [9]: > 100 µM
TGI [11]: 48.9 µM
TGI [12]: 35.9 µM
TGI [51]: 25.6 µM
TGI [13]: 45.9 µM
TGI [14]: 46.8 µM
TGI [15]: 25.9 µM
TGI [16]: > 100 µM
TGI [17]: > 100 µM
TGI [18]: 36 µM
TGI [19]: > 100 µM
TGI [52]: 72.8 µM
TGI [20]: > 100 µM
TGI [21]: 33.2 µM
TGI [22]: 53.5 µM
TGI [23]: 51.6 µM
TGI [24]: > 100 µM
TGI [53]: 75.2 µM
TGI [25]: > 100 µM
TGI [26]: 27.4 µM
TGI [27]: 49.5 µM
TGI [28]: 52.1 µM
TGI [54]: 41 µM
TGI [29]: 41.1 µM
TGI [31]: 60 µM
TGI [55]: 47.2 µM
TGI [32]: 34.1 µM
TGI [33]: 36.9 µM
TGI [34]: 35.9 µM
TGI [56]: 41.9 µM
TGI [35]: 28.5 µM
TGI [57]: 44.2 µM
TGI [37]: 51.5 µM
TGI [38]: 37.1 µM
TGI [39]: > 100 µM
TGI [40]: 32.7 µM
TGI [41]: 61 µM
TGI [42]: 41.9 µM
TGI [43]: > 100 µM
TGI [44]: 41.6 µM
TGI [45]: 33.1 µM
TGI [46]: > 100 µM
TGI [47]: 34.3 µM
TGI [48]: 3.46 µM

O=[N+]([O-])/C(C(Cl)=C(Cl)Cl)=C1\NCCS1
TGI [1]: > 100 µM
TGI [58]: > 100 µM
TGI [2]: > 100 µM
TGI [3]: > 100 µM
TGI [49]: > 100 µM
TGI [4]: > 100 µM
TGI [5]: 46.2 µM
TGI [6]: > 100 µM
TGI [7]: > 100 µM
TGI [8]: > 100 µM
TGI [50]: > 100 µM
TGI [9]: > 100 µM
TGI [10]: > 100 µM
TGI [11]: 48.3 µM
TGI [12]: > 100 µM
TGI [13]: > 100 µM
TGI [14]: > 100 µM
TGI [15]: > 100 µM
TGI [16]: 41.4 µM
TGI [17]: > 100 µM
TGI [18]: 44.1 µM
TGI [19]: > 100 µM
TGI [52]: 92.6 µM
TGI [20]: > 100 µM
TGI [21]: > 100 µM
TGI [22]: > 100 µM
TGI [23]: 62.4 µM
TGI [24]: > 100 µM
TGI [53]: > 100 µM
TGI [25]: > 100 µM
TGI [27]: > 100 µM
TGI [28]: > 100 µM
TGI [54]: > 100 µM
TGI [29]: > 100 µM
TGI [30]: > 100 µM
TGI [31]: > 100 µM
TGI [55]: 54.5 µM
TGI [32]: 58.8 µM
TGI [33]: > 100 µM
TGI [34]: > 100 µM
TGI [56]: > 100 µM
TGI [36]: > 100 µM
TGI [57]: > 100 µM
TGI [37]: > 100 µM
TGI [38]: > 100 µM
TGI [39]: > 100 µM
TGI [41]: 46.4 µM
TGI [42]: > 100 µM
TGI [44]: > 100 µM
TGI [45]: > 100 µM
TGI [46]: > 100 µM
TGI [47]: > 100 µM
TGI [48]: > 100 µM
